Results taken from PubChem BioAssay (NCI).
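GI50 = concentration required for 50% inhibition of growth. TGI denotes the concentration required for complete inhibition of growth.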

Key:
Experiment in all cases: inhibition of tumour cell growth, NCI panel, 384-well format
NCI/ADR-RES ovarian = system: NCI/ADR-RES ovarian
EKVX NSCLC = system: EKVX NSCLC
U251 glioblastoma = system: U251 glioblastoma
HS 578T breast = system: HS 578T breast
LOX IMVI melanoma = system: LOX IMVI melanoma
SK-MEL-2 melanoma = system: SK-MEL-2 melanoma
A549 NSCLC = system: A549 NSCLC
HOP-92 NSCLC = system: HOP-92 NSCLC
UACC-257 melanoma = system: UACC-257 melanoma
MALME-3M melanoma = system: MALME-3M melanoma
PC-3 prostate = system: PC-3 prostate
CCRF-CEM leukemia = system: CCRF-CEM leukemia
A498 renal = system: A498 renal

| Structure (SMILES) | GI50 (NCI/ADR-RES ovarian) | TGI (NCI/ADR-RES ovarian) | GI50 (EKVX NSCLC) | TGI (EKVX NSCLC) | GI50 (U251 glioblastoma) | TGI (U251 glioblastoma) | GI50 (HS 578T breast) | TGI (HS 578T breast) | GI50 (LOX IMVI melanoma) | TGI (LOX IMVI melanoma) | GI50 (SK-MEL-2 melanoma) | TGI (SK-MEL-2 melanoma) | GI50 (A549 NSCLC) | TGI (A549 NSCLC) | GI50 (HOP-92 NSCLC) | TGI (HOP-92 NSCLC) | GI50 (UACC-257 melanoma) | TGI (UACC-257 melanoma) | GI50 (MALME-3M melanoma) | TGI (MALME-3M melanoma) | further results |
| --- | --- | --- | --- | --- | --- | --- | --- | --- | --- | --- | --- | --- | --- | --- | --- | --- | --- | --- | --- | --- | --- |
| C#Cc1cccc(Nc2ncnc3cc(OCCOC)c(OCCOC)cc23)c1 | 12.6 µM | > 100 µM | 1.93 µM | > 100 µM | 43.4 µM | > 100 µM | 3.85 µM | 45.8 µM | 7.97 µM | > 100 µM | 8.78 µM | > 100 µM | 3.72 µM | > 100 µM | 11.9 µM | > 96.6 µM | 96.9 µM | > 100 µM | 16.8 µM | > 100 µM | GI50 (PC-3 prostate): 23 µM; TGI (PC-3 prostate): > 100 µM; GI50 (CCRF-CEM leukemia): 11.2 µM; TGI (CCRF-CEM leukemia): > 100 µM; GI50 (A498 renal): 1.97 µM; TGI (A498 renal): > 100 µM |
| CC(=O)OC[C@H]1O[C@@H](n2ccc(=O)[nH]c2=O)[C@H](OC(C)=O)[C@@H]1OC(C)=O | > 100 µM | > 100 µM | > 100 µM | > 100 µM | > 100 µM | > 100 µM | > 100 µM | > 100 µM | > 100 µM | > 100 µM | > 100 µM | > 100 µM | > 100 µM | > 100 µM | > 100 µM | > 100 µM | > 100 µM | > 100 µM | > 100 µM | > 100 µM | GI50 (PC-3 prostate): > 100 µM; TGI (PC-3 prostate): > 100 µM; GI50 (CCRF-CEM leukemia): > 100 µM; TGI (CCRF-CEM leukemia): > 100 µM; GI50 (A498 renal): > 100 µM; TGI (A498 renal): > 100 µM |
